Where “and” joins values, the source holds several entries; their conditions need not be identical. Equal entries are not always repeated. Inconclusive results and toxic doses are left out.

In the test the test system is BDF1 mice, P388 leukemia ip, median survival T/C. In words: NCI In Vivo Anticancer Drug Screen. Data for tumor model P388 Leukemia (intraperitoneal) in B6D2F1 (BDF1) mice. Particulars: endpoint: median survival time, higher = longer survival. In outline: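 Read-out is survival of treated animals expressed relative to the vehicle group, as a T/C ratio.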
[1] abbreviates: dose: 100.0 mg/kg/injection, schedule: Q01DX001 (ip), vehicle: Klucel (hydroxypropylcellulose) (HPC).
The mark [2] stands for this setting: dose: 100.0 mg/kg/injection, schedule: Q01DX009 (ip), vehicle: Klucel (hydroxypropylcellulose) (HPC).
The mark [3] stands for this setting: dose: 200.0 mg/kg/injection, schedule: Q01DX001 (ip), vehicle: Klucel (hydroxypropylcellulose) (HPC).
Where [4] appears, read: dose: 200.0 mg/kg/injection, schedule: Q01DX009 (ip), vehicle: Klucel (hydroxypropylcellulose) (HPC).
Setting [5] is: dose: 400.0 mg/kg/injection, schedule: Q01DX001 (ip), vehicle: Klucel (hydroxypropylcellulose) (HPC).
[6] abbreviates: dose: 400.0 mg/kg/injection, schedule: Q01DX009 (ip), vehicle: Klucel (hydroxypropylcellulose) (HPC).
Where [7] appears, read: dose: 25.0 mg/kg/injection, schedule: Q01DX009 (ip), vehicle: saline with Tween-80.
Where [8] appears, read: dose: 50.0 mg/kg/injection, schedule: Q01DX009 (ip), vehicle: saline with Tween-80.
Setting [9] is: dose: 50.0 mg/kg/injection, schedule: Q04DX003 (ip), vehicle: saline with Tween-80.
[10] abbreviates: dose: 100.0 mg/kg/injection, schedule: Q01DX009 (ip), vehicle: saline with Tween-80.
Setting [11] is: dose: 100.0 mg/kg/injection, schedule: Q04DX003 (ip), vehicle: saline with Tween-80.
The mark [12] stands for this setting: dose: 200.0 mg/kg/injection, schedule: Q01DX009 (ip), vehicle: saline with Tween-80.
Where [13] appears, read: dose: 200.0 mg/kg/injection, schedule: Q04DX003 (ip), vehicle: saline with Tween-80.
Where [14] appears, read: dose: 400.0 mg/kg/injection, schedule: Q01DX009 (ip), vehicle: saline with Tween-80.
The mark [15] stands for this setting: dose: 400.0 mg/kg/injection, schedule: Q04DX003 (ip), vehicle: saline with Tween-80.
The mark [16] stands for this setting: dose: 12.5 mg/kg/injection, schedule: Q01DX009 (ip), vehicle: Klucel (hydroxypropylcellulose) (HPC).
The mark [17] stands for this setting: dose: 25.0 mg/kg/injection, schedule: Q01DX009 (ip), vehicle: Klucel (hydroxypropylcellulose) (HPC).
[18] abbreviates: dose: 50.0 mg/kg/injection, schedule: Q01DX009 (ip), vehicle: Klucel (hydroxypropylcellulose) (HPC).
The mark [19] stands for this setting: dose: 100.0 mg/kg/injection, schedule: Q04DX003 (ip), vehicle: Klucel (hydroxypropylcellulose) (HPC).
Setting [20] is: dose: 200.0 mg/kg/injection, schedule: Q04DX003 (ip), vehicle: Klucel (hydroxypropylcellulose) (HPC).
The mark [21] stands for this setting: dose: 400.0 mg/kg/injection, schedule: Q04DX003 (ip), vehicle: Klucel (hydroxypropylcellulose) (HPC).
Where [22] appears, read: dose: 100.0 mg/kg/injection, schedule: Q01DX009 (ip), vehicle: saline.
[23] abbreviates: dose: 200.0 mg/kg/injection, schedule: Q01DX009 (ip), vehicle: saline.
The mark [24] stands for this setting: dose: 25.0 mg/kg/injection, schedule: Q04DX003 (ip), vehicle: saline with Tween-80.
The mark [25] stands for this setting: dose: 100.0 mg/kg/injection, schedule: Q04DX003 (ip), vehicle: saline.

Take `O=[N+]([O-])c1cccc(/C=C/c2ccccc2)c1`: the T/C runs as follows: under setting [1], 100 % of control; under setting [2], 95 % of control; under setting [3], 95 % of control; under setting [4], 95 % of control; under setting [5], 90 % of control; under setting [6], 90 % of control.

For `N#CCC(NC(=O)OCc1ccccc1)C(=O)OCc1ccccc1` (stereo unspecified), the T/C by setting is: under setting [7], 100 % of control; under setting [8], 94 % of control; under setting [9], 96 % of control; under setting [10], 88 % of control; under setting [11], 105 % of control; under setting [12], 96 % of control. The T/C under setting [13] was 94 % of control, the T/C under setting [14] was 96 % of control and the T/C under setting [15] was 105 % of control.

Consider `Nc1n[nH]c(=S)n1-c1ccccc1`, for which the T/C runs as follows: under setting [1], 104 % of control; under setting [2], 95 % of control; under setting [3], 95 % of control; under setting [4], 91 % of control; under setting [5], 90 % of control; under setting [6], 104 % of control.

Turning to `Clc1cccc(N2CN(c3cccc(Cl)c3)CN(c3cccc(Cl)c3)C2)c1`, the T/C is, setting by setting: (dose: 100.0 mg/kg/injection, schedule: Q01DX001 (ip), vehicle: saline with Tween-80) 90 % of control; (dose: 200.0 mg/kg/injection, schedule: Q01DX001 (ip), vehicle: saline with Tween-80) 87 % of control; (dose: 400.0 mg/kg/injection, schedule: Q01DX001 (ip), vehicle: saline with Tween-80) 91 % of control.

As for `CCCC=C=CCN(C)C`, the T/C was 96 % of control (dose: 12.5 mg/kg/injection, schedule: Q04DX002 (ip), vehicle: saline); 100 % of control (dose: 25.0 mg/kg/injection, schedule: Q04DX002 (ip), vehicle: saline); 112 % of control (dose: 50.0 mg/kg/injection, schedule: Q04DX002 (ip), vehicle: saline).

Turning to `C[C@]12CCC(=O)C=C1CC[C@@H]1[C@@H]2[C@@H](O)C[C@@]2(C)[C@H]1CC[C@]2(O)C(=O)COC(=O)CCC1CCCC1`, the T/C under setting [16] is 118 % of control; the T/C under setting [17] was 113 % of control; the T/C under setting [18] was 100 % of control; the T/C under setting [19] is 123 % of control; the T/C under setting [20] is 109 % of control; the T/C under setting [21] was 109 % of control.

With `O=[N+]([O-])/C=C/c1c(Cl)cccc1Cl`, the T/C (dose: 50.0 mg/kg/injection, schedule: Q04DX003 (ip), vehicle: other) was 122 % of control.

Regarding `CC(=O)Nc1c(C)cc(C)cc1C`, the T/C reads like this: under setting [19], 104 % of control; under setting [20], 100 % of control; under setting [21], 118 % of control.

Take `COc1ccc(Nc2nc(N)nc(CNc3ccc(Cl)cc3)n2)cc1`: the T/C reads like this: (dose: 100.0 mg/kg/injection, schedule: Q04DX003 (ip), vehicle: saline sonified) 100 % of control; (dose: 200.0 mg/kg/injection, schedule: Q04DX003 (ip), vehicle: saline sonified) 100 % of control; (dose: 400.0 mg/kg/injection, schedule: Q04DX003 (ip), vehicle: saline sonified) 110 % of control.

On to `CCOC(=O)C1(C(=O)OCC)C2CC=CCC21` (stereo unspecified), for which the T/C is, setting by setting: under setting [22], 95 % of control; under setting [23], 100 % of control; (dose: 400.0 mg/kg/injection, schedule: Q01DX009 (ip), vehicle: saline) 100 % of control.

Take `O=I(=O)c1ccccc1`: the T/C under setting [16] is 91 % of control; the T/C (dose: 17.0 mg/kg/injection, schedule: Q01DX009 (ip), vehicle: saline with Tween-80) was 92 % of control; the T/C under setting [17] is 86 % of control and 100 % of control; the T/C under setting [7] is 96 % of control; the T/C under setting [24] is 100 % of control; the T/C (dose: 37.0 mg/kg/injection, schedule: Q01DX009 (ip), vehicle: saline with Tween-80) was 96 % of control. Also, the T/C is 86 % of control and 90 % of control and 118 % of control under setting [18]; 115 % of control under setting [8]; 90 % of control under setting [9]; 104 % of control under setting [2]; 120 % of control under setting [10]; 90 % of control under setting [11].

In the case of `Cc1ncc([N+](=O)[O-])n1CCN=[N+]=[N-]`, the T/C runs as follows: under setting [11], 104 % of control; under setting [13], 123 % of control.

With `CN(C)C(=O)Nc1ccc(Cc2ccc(NC(=O)N(C)C)cc2)cc1`, the T/C runs as follows: under setting [8], 96 % of control; under setting [10], 99 % of control; under setting [12], 108 % of control; under setting [14], 99 % of control.

Regarding `CN(C)c1ccc(C(=O)O)cn1`, the T/C was 100 % of control (dose: 50.0 mg/kg/injection, schedule: Q01DX009 (ip), vehicle: saline); 101 % of control under setting [22]; 102 % of control under setting [25]; 110 % of control (dose: 200.0 mg/kg/injection, schedule: Q01DX007 (ip), vehicle: saline); 92 % of control under setting [23]; 100 % of control (dose: 200.0 mg/kg/injection, schedule: Q04DX003 (ip), vehicle: saline). Also, the T/C by setting is: (dose: 300.0 mg/kg/injection, schedule: Q01DX007 (ip), vehicle: saline) 108 % of control; (dose: 400.0 mg/kg/injection, schedule: Q01DX007 (ip), vehicle: saline) 100 % of control; (dose: 400.0 mg/kg/injection, schedule: Q04DX003 (ip), vehicle: saline) 109 % of control; (dose: 500.0 mg/kg/injection, schedule: Q01DX007 (ip), vehicle: saline) 106 % of control; (dose: 600.0 mg/kg/injection, schedule: Q01DX007 (ip), vehicle: saline) 110 % of control.

With `COC(=O)C1CC(O)CN1C(=O)c1c2nc3c(C(=O)N4CC(O)CC4C(=O)OC)ccc(C)c3oc-2c(C)c(=O)c1N` (stereo unspecified), the T/C is, setting by setting: under setting [11], 96 % of control; under setting [13], 100 % of control; under setting [15], 114 % of control.

Turning to `O=C1C=C(c2ccccc2)C(O)(c2ccccc2)C1` (stereo unspecified), the T/C was 102 % of control under setting [10] and 88 % of control under setting [12].

For `Nc1nc(CCl)nc(Nc2ccccc2)n1`, the T/C is, setting by setting: under setting [16], 100 % of control; under setting [17], 98 % of control; under setting [18], 102 % of control; under setting [2], 100 % of control.

Consider `NC(N)=Nc1ccc(C(=O)Oc2c(Cl)cc([N+](=O)[O-])cc2Cl)cc1`, for which the T/C was 94 % of control (dose: 0.18 mg/kg/injection, schedule: Q01DX009 (ip), vehicle: saline); 92 % of control (dose: 0.39 mg/kg/injection, schedule: Q01DX009 (ip), vehicle: saline); 96 % of control (dose: 0.78 mg/kg/injection, schedule: Q01DX009 (ip), vehicle: saline); 102 % of control (dose: 1.56 mg/kg/injection, schedule: Q01DX009 (ip), vehicle: saline); 86 % of control (dose: 3.12 mg/kg/injection, schedule: Q01DX009 (ip), vehicle: saline); 95 % of control (dose: 50.0 mg/kg/injection, schedule: Q04DX003 (ip), vehicle: saline). Besides, the T/C under setting [25] is 113 % of control.

In the case of `COCCCNP(=S)(N1CC1)N1CC1`, the T/C by setting is: (dose: 16.5 mg/kg/injection, schedule: Q04DX003 (ip), vehicle: saline with Tween-80) 163 % of control and 195 % of control; under setting [24], 181 % of control and 218 % of control; (dose: 37.5 mg/kg/injection, schedule: Q04DX003 (ip), vehicle: saline with Tween-80) 104 % of control and 109 % of control.

For the origin of these results see PubChem BioAssay AID328 (DTP/NCI, 2004).
